Laboratory results reported in patent US20100015249A1, “Antitumor agent containing 6'-amidino-2'-naphthyl 4-guanidinobenzoate or salt thereof” (priority 2005, published 2010).

Experiments:
[1] = test system: human pancreas cancer cell line MDAPanc-28; experiment: MTT assay of cell survival rate / living cell ratio; assay type: cell-based; conditions: MDAPanc-28, single agent, MTT
Procedure: The present inventors examined the concomitant effect of FUT and TNF-α on apoptosis in cancer cells. After treatment with TNF-α for 24 hours, the human pancreas cancer cell line MDAPanc-28 was further cultured for 24 hours with various concentrations of FUT being added. Cells prepared were then subjected to an MTT assay according to the method generally known to calculate the cell survival rates. Also, DNA was extracted to perform a DNA fragmentation assay.
More specifically, with regard to the MTT assay, each well was seeded with 2000 cells per 100 μl of culture medium in a 96-well microtiterplate, followed by the above mentioned treatment. After plate centrifugation, each well received 5 mg/ml of MTT (Sigma) PBS solution instead of culture medium and was incubated for 4 hours at 37° C. After removing the supernatant, 100 μl of DMSO were added to dissolve the cells. The absorbance of the samples was measured at 570 nm by using a microplate reader. 8 wells were subjected to the same condition in this experiment. Two independent experiments were performed, and the average was calculated.
However, the agents are of different types with different mechanisms of action. Therefore, the present inventors examined the effect of each agent on the living cell ratio in the human pancreas cancer cell line MDAPanc-28 singularly. After being treated with each agent for 24 hours and 48 hours, the human pancreas cancer cell line MDAPanc-28 was subjected to a MTT assay. The MTT assay was performed by the method described in Example 9.

NF-κB = experiment: Gel shift assay of gemcitabine-induced NF-κB activation; assay type: cell-based, human; conditions: MDAPanc-28, pretreatment 3 hours then gemcitabine 3 hours
Procedure: At the same time, the present inventors also made a comparison with the other NF-κB inhibitors PS1145 and PS341. […] Subsequently, a gel shift assay was performed to examine the effect on NF-κB activation.

Murine fiber cells = experiment: Effect on survival rate of normal cells; assay type: cell-based; conditions: concentrations under which apoptosis was induced in cells
Source text: Therefore, the present inventors next examined the effect of FUT treatment on normal cells. Murine fiber cells were used as normal cells.

[2] = test system: human pancreas cancer cell line MDAPanc-28; experiment: Apoptosis ratio by flow cytometry (propidium iodide, FACScan); assay type: cell-based; conditions: for apoptosis induction in combination with gemcitabine: MDAPanc-28, pretreatment with the agent 3 hours then gemcitabine 48 hours, compared with gemcitabine alone
Procedure: The present inventors next examined the effect of these agents on apoptosis induction in the human pancreas cancer cell line MDAPanc-28. […] Flow cytometry was used to confirm the occurrence of apoptosis. Cells were collected after treatments with the agents and fixed in 70% ethanol at −20° C. for 24 hours. After rinsing with PBS, cells were suspended in PBS containing 50 μg/ml of propium iodide, 0.1% Triton X-100, 0.1% sodium citrate and 1 μg/ml of DNase free RNase. The samples were incubated at room temperature for 30 minutes and the amount of DNA was measured by using FACScan.

[3] = test system: human pancreas cancer cell line Panc-1; experiment: Subcutaneous Panc-1 transplant in nude mice: tumor volume and weight; assay type: in vivo; conditions: Panc-1 s.c., 6 weeks treatment, gemcitabine 100 mg/kg once a week i.p., FUT-175 30 mg/kg three times a week i.p.
Procedure: (§1) Tumor volume, the body weight and extirpated tumor weight were measured and pictures were taken for each group of mice.

[4] = Body weight of Panc-1 transplanted nude mice after treatment; assay type: in vivo; conditions: Panc-1 s.c., 6 weeks treatment, gemcitabine 100 mg/kg once a week i.p., FUT-175 30 mg/kg three times a week i.p.
Procedure: as §1

[5] = test system: human pancreas cancer cell line MDAPanc-28; experiment: DNA fragmentation assay (apoptosis); assay type: cell-based; conditions: MDAPanc-28, TNF-α 5 ng/ml 24 hours, then with or without FUT 24 hours
Procedure: After adding 1000 U/ml of protease K, the sample was further incubated for 5 hours at 50° C. After extracting DNA with phenol/chloroform/isoamyl alcohol, isopropanol and ammonium acetate were added to the collected water-soluble fractions in order to collect precipitates. The precipitates were then rinsed with 70% ethanol and dissolved in Tris-EDTA buffer. Electrophoresis was performed on a 2% agarose gel and DNA bands were confirmed by using ethidium bromide. The present inventors examined the concomitant effect of FUT and TNF-α on apoptosis in cancer cells. After treatment with TNF-α for 24 hours, the human pancreas cancer cell line […]-28 was further cultured for 24 hours with various concentrations of FUT being added. Cells prepared were then subjected to an MTT assay according to the method generally known to calculate the cell survival rates. Also, DNA was extracted to perform a DNA fragmentation assay. More specifically, with regard to the MTT assay, each well was seeded with 2000 cells per 100 μl of culture medium in a 96-well microtiterplate, followed by the above mentioned treatment. […] The absorbance of the samples was measured at 570 nm by using a microplate reader. […] Two independent experiments were performed, and the average was calculated. […]

With `CC(C)C[C@H](NC(=O)[C@H](Cc1ccccc1)NC(=O)c1cnccn1)B(O)O` [PS341] the “inhibitory effect on proliferation, 24-hour treatment” value [1] was “no significant inhibitory effect on proliferation”, the “inhibitory effect on proliferation, 48-hour treatment” value [1] was “no significant inhibitory effect on proliferation” and the “effect on gemcitabine-induced activation of NF-κB” value (NF-κB) was “showed a similar trend”. The “survival rate of normal cells” value (Murine fiber cells) was “significantly decreased the survival rate of normal cells” and the “apoptosis induction in combination with gemcitabine” value [2] was “further enhanced the effect on apoptosis induction”.
With `O=C(Nc1cc(Cl)cc2c1[nH]c1cnccc12)c1cccnc1` [PS1145] the “inhibitory effect on proliferation, 24-hour treatment” value [1] was “did not show any significant inhibitory effect”, the “inhibitory effect on proliferation, 48-hour treatment” value [1] was “concentration-dependent inhibitory effect on proliferation” and the “effect on gemcitabine-induced activation of NF-κB” value (NF-κB) was “showed a similar trend”. The “survival rate of normal cells” value (Murine fiber cells) was “significantly decreased the survival rate of normal cells” and the “apoptosis induction in combination with gemcitabine” value [2] was “further enhanced the effect on apoptosis induction”.
With `Nc1ccn([C@@H]2O[C@H](CO)[C@@H](O)C2(F)F)c(=O)n1` [gemcitabine] the “Extirpated tumor weight, level of the control” value [3] was “approximately 50%”, the “Tumor volume, level of the control” value [3] was “approximately 50%” and the “body weight of mice after administration” value [4] was “showed weight reduction”. For the same compound, the “apoptosis induction, single agent” value ([2]; MDAPanc-28, gemcitabine alone for 48 hours) was “induced apoptosis”.
For TNF-α, the DNA fragmentation [5] was “showed no DNA fragmentation”.
